Laboratory results reported in PubChem BioAssay (NCI).
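Compound exposure: 48 hours, 5 concentrations, 96-well plates. GI50: concentration for 50% inhibition of growth. TGI denotes the concentration required for complete inhibition of growth.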

Tests used:
Test in all cases: growth of human tumour cells (NCI), 48 h
[1] = tested on: 786-0 renal
[2] = tested on: A498 renal
[3] = tested on: A549 NSCLC
[4] = tested on: ACHN renal
[5] = tested on: BT-549 breast
[6] = tested on: CAKI-1 renal
[7] = tested on: CCRF-CEM leukemia
[8] = tested on: COLO 205 colon
[9] = tested on: DU-145 prostate
[10] = tested on: EKVX NSCLC
[11] = tested on: HCC-2998 colon
[12] = tested on: HCT-116 colon
[13] = tested on: HCT-15 colon
[14] = tested on: HL-60(TB) leukemia
[15] = tested on: HOP-62 NSCLC
[16] = tested on: HOP-92 NSCLC
[17] = tested on: HS 578T breast
[18] = tested on: HT29 colon
[19] = tested on: IGROV1 ovarian
[20] = tested on: K-562 leukemia
[21] = tested on: KM12 colon
[22] = tested on: LOX IMVI melanoma
[23] = tested on: M14 melanoma
[24] = tested on: MALME-3M melanoma
[25] = tested on: MCF7 breast
[26] = tested on: MDA-MB-231 breast
[27] = tested on: MDA-MB-435
[28] = tested on: MDA-MB-468 breast
[29] = tested on: MOLT-4 leukemia
[30] = tested on: NCI-H226 lung
[31] = tested on: NCI-H23 lung
[32] = tested on: NCI-H460 lung
[33] = tested on: NCI-H522 lung
[34] = tested on: NCI/ADR-RES ovarian
[35] = tested on: OVCAR-3 ovarian
[36] = tested on: OVCAR-4 ovarian
[37] = tested on: OVCAR-5 ovarian
[38] = tested on: OVCAR-8 ovarian
[39] = tested on: PC-3 prostate
[40] = tested on: RPMI-8226 leukemia
[41] = tested on: RXF 393 renal
[42] = tested on: SF-268 CNS
[43] = tested on: SF-295 CNS
[44] = tested on: SF-539 CNS
[45] = tested on: SK-MEL-2 melanoma
[46] = tested on: SK-MEL-28 melanoma
[47] = tested on: SK-MEL-5 melanoma
[48] = tested on: SK-OV-3 ovarian
[49] = tested on: SN12C renal
[50] = tested on: SNB-19 CNS
[51] = tested on: SNB-75 CNS
[52] = tested on: SR leukemia
[53] = tested on: SW-620 colon
[54] = tested on: T-47D breast
[55] = tested on: TK-10 renal
[56] = tested on: U251 CNS
[57] = tested on: UACC-257 melanoma
[58] = tested on: UACC-62 melanoma
[59] = tested on: UO-31 renal

Compound: Cc1cc2c(cc1Cl)C(=O)/C(=C/c1ccccc1)O2
- GI50 [1]: 20 µM
- TGI [1]: 40.5 µM
- GI50 [2]: 49.3 µM
- TGI [2]: > 100 µM
- GI50 [3]: 16.6 µM
- TGI [3]: 37.8 µM
- GI50 [4]: 15.1 µM
- TGI [4]: 29 µM
- GI50 [5]: 16.7 µM
- TGI [5]: 45.3 µM
- GI50 [6]: 15.5 µM
- TGI [6]: 31.1 µM
- GI50 [7]: 18.7 µM
- TGI [7]: 49.2 µM
- GI50 [8]: 24.6 µM
- TGI [8]: 51.9 µM
- GI50 [9]: 16.9 µM
- TGI [9]: 33.7 µM
- GI50 [10]: 16.5 µM
- TGI [10]: 33.1 µM
- GI50 [11]: 31.6 µM
- TGI [11]: > 100 µM
- GI50 [12]: 15.4 µM
- TGI [12]: 62.9 µM
- GI50 [13]: 14.2 µM
- TGI [13]: 85.4 µM
- GI50 [14]: 22.3 µM
- TGI [14]: 46.7 µM
- GI50 [15]: 22.8 µM
- TGI [15]: 52.8 µM
- GI50 [16]: 17.7 µM
- TGI [16]: 44.6 µM
- GI50 [17]: 29.2 µM
- TGI [17]: > 100 µM
- GI50 [18]: 29 µM
- TGI [18]: > 100 µM
- GI50 [19]: 14 µM
- TGI [19]: 30.9 µM
- GI50 [20]: 27.6 µM
- TGI [20]: > 100 µM
- GI50 [21]: 31.3 µM
- TGI [21]: > 100 µM
- GI50 [22]: 1.9 µM
- TGI [22]: 4.19 µM
- GI50 [23]: 26 µM
- TGI [23]: > 100 µM
- GI50 [24]: 17.4 µM
- TGI [24]: 31.7 µM
- GI50 [25]: 2.7 µM
- TGI [25]: 57.4 µM
- GI50 [26]: 16.5 µM
- TGI [26]: 39.4 µM
- GI50 [27]: 21.5 µM
- TGI [27]: 59.6 µM
- GI50 [28]: 13.2 µM
- TGI [28]: 40.5 µM
- GI50 [29]: 17.9 µM
- TGI [29]: 46 µM
- GI50 [30]: 12.8 µM
- TGI [30]: 31.5 µM
- GI50 [31]: 15.4 µM
- TGI [31]: 44.8 µM
- GI50 [32]: 16 µM
- TGI [32]: 35.6 µM
- GI50 [33]: 13 µM
- TGI [33]: 30.7 µM
- GI50 [34]: 15.7 µM
- TGI [34]: 38.6 µM
- GI50 [35]: 25.5 µM
- TGI [35]: 93.1 µM
- GI50 [36]: 16.8 µM
- TGI [36]: 61.3 µM
- GI50 [37]: 23.2 µM
- TGI [37]: > 100 µM
- GI50 [38]: 16.5 µM
- TGI [38]: 44.1 µM
- GI50 [39]: 11.1 µM
- TGI [39]: 70.6 µM
- GI50 [40]: 22.4 µM
- TGI [40]: > 100 µM
- GI50 [41]: 15 µM
- TGI [41]: 33.6 µM
- GI50 [42]: 25.1 µM
- TGI [42]: 89.2 µM
- GI50 [43]: 26 µM
- TGI [43]: > 100 µM
- GI50 [44]: 15.7 µM
- TGI [44]: 29.1 µM
- GI50 [45]: 20.6 µM
- TGI [45]: 72 µM
- GI50 [46]: 23.7 µM
- TGI [46]: 76.3 µM
- GI50 [47]: 15.6 µM
- TGI [47]: 30.9 µM
- GI50 [48]: 62.3 µM
- TGI [48]: > 100 µM
- GI50 [49]: 13.9 µM
- TGI [49]: 33.1 µM
- GI50 [50]: 26.5 µM
- TGI [50]: > 100 µM
- GI50 [51]: 9.27 µM
- TGI [51]: 57.7 µM
- GI50 [52]: 20.9 µM
- TGI [52]: 54.8 µM
- GI50 [53]: 16.8 µM
- TGI [53]: 48.3 µM
- GI50 [54]: 13.6 µM
- TGI [54]: 35.3 µM
- GI50 [55]: 23.5 µM
- TGI [55]: 40.6 µM
- GI50 [56]: 13.1 µM
- TGI [56]: 28.7 µM
- GI50 [57]: 23.4 µM
- TGI [57]: > 100 µM
- GI50 [58]: 15.9 µM
- TGI [58]: 49.9 µM
- GI50 [59]: 13.9 µM
- TGI [59]: 26.8 µM

Compound: Cn1cc(-c2cc(N)n3nc(-c4cn(C)c5ncccc45)cc3n2)c2cccnc21
- GI50 [1]: 16.7 µM
- TGI [1]: 32.2 µM
- GI50 [2]: > 100 µM
- TGI [2]: > 100 µM
- GI50 [3]: 15.7 µM
- TGI [3]: 42 µM
- GI50 [4]: 17.3 µM
- TGI [4]: 33 µM
- GI50 [5]: 17.4 µM
- TGI [5]: 39.1 µM
- GI50 [6]: 16.9 µM
- TGI [6]: 35.6 µM
- GI50 [7]: 5.88 µM
- TGI [7]: 94.5 µM
- GI50 [8]: 10.3 µM
- TGI [8]: 23.9 µM
- GI50 [9]: 14.6 µM
- TGI [9]: 28.5 µM
- GI50 [10]: 15.2 µM
- TGI [10]: 30.2 µM
- GI50 [11]: 15.1 µM
- TGI [11]: 28.3 µM
- GI50 [12]: 16.8 µM
- TGI [12]: 38.2 µM
- GI50 [13]: 16.4 µM
- TGI [13]: 31.2 µM
- GI50 [14]: 14.8 µM
- TGI [14]: 37 µM
- GI50 [15]: 18 µM
- TGI [15]: 36.4 µM
- GI50 [16]: 11.1 µM
- TGI [16]: 29.1 µM
- GI50 [17]: 18.7 µM
- TGI [17]: 73.4 µM
- GI50 [18]: 14.9 µM
- TGI [18]: 31.5 µM
- GI50 [19]: 17.8 µM
- TGI [19]: 37.6 µM
- GI50 [20]: 6.6 µM
- TGI [20]: 27 µM
- GI50 [21]: 16.6 µM
- TGI [21]: 32.3 µM
- GI50 [22]: 18.2 µM
- TGI [22]: 39.7 µM
- GI50 [23]: 16 µM
- TGI [23]: 30.9 µM
- GI50 [24]: 17.3 µM
- TGI [24]: 36.4 µM
- GI50 [25]: 18.7 µM
- TGI [25]: 41.6 µM
- GI50 [26]: 13.7 µM
- TGI [26]: 26.5 µM
- GI50 [27]: 29.4 µM
- TGI [27]: > 100 µM
- GI50 [28]: 13.7 µM
- TGI [28]: 26.7 µM
- GI50 [29]: 17.7 µM
- TGI [29]: 51.6 µM
- GI50 [30]: 17.8 µM
- TGI [30]: 42.9 µM
- GI50 [31]: 17.4 µM
- TGI [31]: 32 µM
- GI50 [32]: 15.9 µM
- TGI [32]: 32.6 µM
- GI50 [33]: 32.1 µM
- TGI [33]: > 100 µM
- GI50 [34]: 30.9 µM
- TGI [34]: > 100 µM
- GI50 [35]: 15.6 µM
- TGI [35]: 30.9 µM
- GI50 [36]: 17.2 µM
- TGI [36]: 36.2 µM
- GI50 [37]: 15.1 µM
- TGI [37]: 28.4 µM
- GI50 [38]: 18.7 µM
- TGI [38]: 46 µM
- GI50 [39]: 15.2 µM
- TGI [39]: 34.9 µM
- GI50 [40]: 12.9 µM
- TGI [40]: 38.4 µM
- GI50 [41]: 5.11 µM
- TGI [41]: 21.9 µM
- GI50 [42]: > 100 µM
- TGI [42]: > 100 µM
- GI50 [43]: 17.5 µM
- TGI [43]: 38.8 µM
- GI50 [44]: 16.4 µM
- TGI [44]: 32.1 µM
- GI50 [45]: > 100 µM
- TGI [45]: > 100 µM
- GI50 [46]: 16.4 µM
- TGI [46]: 31.6 µM
- GI50 [47]: 14.4 µM
- TGI [47]: 28.2 µM
- GI50 [48]: > 100 µM
- TGI [48]: > 100 µM
- GI50 [49]: 15.2 µM
- TGI [49]: 30.4 µM
- GI50 [50]: 18.6 µM
- TGI [50]: 38.4 µM
- GI50 [51]: 11.1 µM
- TGI [51]: 30.6 µM
- GI50 [53]: 13.3 µM
- TGI [53]: 29.7 µM
- GI50 [54]: 42.7 µM
- TGI [54]: > 100 µM
- GI50 [55]: 14.3 µM
- TGI [55]: 27.9 µM
- GI50 [56]: 19.8 µM
- TGI [56]: 46.4 µM
- GI50 [57]: 29.2 µM
- TGI [57]: > 100 µM
- GI50 [58]: 29 µM
- TGI [58]: > 100 µM
- GI50 [59]: 15.2 µM
- TGI [59]: 32.1 µM
